In patent US20260355184A1, “SMALL MOLECULE DEGRADERS OF HIV-1 TAT PROTEIN” (priority 2022, published 2026):
Read-outs that look alike come from different tables or passages of the source.

Legend:
HIV NL4.3 strain = experiment: HIV infectivity assay, reporter cell line HeLa-CD4-LTR-LacZ, β-Gal activity (Tat protein inhibition); assay type: cell-based, HIV-1 (NL4.3)
Protocol: (§1) Next, the activity of these leads against HIV infection was evaluated using the reporter cell line HeLa-CD4-LTR-LacZ, which stably expresses the β-galactosidase (β-Gal) gene under the control of the HIV 5′ LTR. The HIV NL4.3 strain was used for these studies and β-Gal activity was measured 72 hrs post infection (FIG. 3A). Cytotoxicity assays using Cell-Titer-Glo were performed in parallel to assess cell viability (FIG. 3A). […] Their anti-HIV activity was further assessed in acute replication of Jurkat T cells with the NL4.3 strain (FIG. 3A). […] These OM10.1 cells contain a single integrated wild-type provirus, while ACH-2 cells contain a single integrated provirus with a TAR mutation C37T, defective Tat-TAR feedback loop (FIG. 3B).

[1] = Cytotoxicity assay, Cell-Titer-Glo, HeLa-CD4-LTR-LacZ; details: human, hela-cd4-ltr-lacz cells
Protocol: as §1

[2] = Human immunodeficiency virus 1, read-out: Infectivity IC50, HeLa-CD4-LTR-LacZ, analogs of TT-44881 (Table 1)
[3] = Infectivity CC50, HeLa-CD4-LTR-LacZ, analogs of TT-44881 (Table 1)
[4] = Human immunodeficiency virus 1, read-out: Infectivity IC50, HeLa-CD4-LTR-LacZ, analogs of TT-44856 (Table 3)
[5] = Infectivity CC50, HeLa-CD4-LTR-LacZ, analogs of TT-44856 (Table 3)
[6] = Human immunodeficiency virus 1, read-out: Infectivity IC50, HeLa-CD4-LTR-LacZ, analogs of TT-44863 (Table 2)
[7] = Infectivity CC50, HeLa-CD4-LTR-LacZ, analogs of TT-44863 (Table 2)

O=C(NCCCN1CCCC1=O)c1c[nH]nc1C1CC1 [compound 46821]
IC50 (HIV NL4.3 strain; [2]): > 100 µM
CC50 [1, 3]: > 100 µM

CCC(C(=O)NCCCn1ccnc1)c1ccccc1 (stereo not shown) [3-72]
IC50 (HIV NL4.3 strain; [4]): > 100 µM
CC50 [1, 5]: > 100 µM

O=C(NCCCn1ccnc1)C1(O)c2ccccc2-c2ccccc21 [3-36]
IC50 (HIV NL4.3 strain; Human immunodeficiency virus 1, read-out: Infectivity IC50): 20 to 50 µM
CC50 [1]: > 100 µM

COc1ccc(C(C(=O)NCCCn2ccnc2)c2ccccc2)cc1 (stereo not shown) [3-48]
IC50 (HIV NL4.3 strain; [4]): 20 to 50 µM
CC50 [1, 5]: > 100 µM

O=C(NCc1ccccc1N1CCCCC1)c1cn(-c2ccccc2)c2ccccc12 [compound 41924]
IC50 (HIV NL4.3 strain; [2]): > 100 µM
CC50 [1, 3]: > 100 µM

O=C(NCCCN1CCCC1=O)c1n[nH]c2ccccc12 [compound 46826]
IC50 (HIV NL4.3 strain; [2]): > 100 µM
CC50 [1, 3]: > 100 µM

CCC(C(=O)NCCCn1cnc2ccccc21)(c1ccccc1)c1ccccc1 [3-70]
IC50 (HIV NL4.3 strain; [4]): 20 to 50 µM
CC50 [1, 5]: 50 to 100 µM

CC(C(=O)NCCc1ccccc1)(c1ccccc1)c1ccccc1 [3-46]
IC50 (HIV NL4.3 strain; [4]): 50 to 100 µM
CC50 [1, 5]: 20 to 50 µM

O=C(NCCCN1CCCC1=O)c1nn(-c2ccccc2)c2ncccc12 [compound 46752]
IC50 (HIV NL4.3 strain; [2]): > 100 µM
CC50 [1, 3]: > 100 µM

CCCC(C(=O)NCCCn1ccnc1C)(c1ccccc1)c1ccccc1 [3-65]
IC50 (HIV NL4.3 strain; [4]): 1 to 10 µM
CC50 [1, 5]: 50 to 100 µM

CC(NC(=O)C(C)(c1ccccc1)c1ccccc1)c1ccccc1 (stereo not shown) [3-47]
IC50 (HIV NL4.3 strain; [4]): 10 to 30 µM
CC50 [1, 5]: > 100 µM

COc1ccc(C#N)cc1NC(=O)Cn1cc(C)cc(Cl)c1=O [compound 46946]
IC50 (HIV NL4.3 strain; [6]): > 50 µM
CC50 [1, 7]: > 50 µM

CC(C)c1nccn1CCCNC(=O)C(C)(c1ccccc1)c1ccccc1 [3-54]
IC50 (HIV NL4.3 strain; [4]): 1 to 20 µM
CC50 [1, 5]: 50 to 100 µM

COc1ccccc1NC(=O)Cn1cc(C(F)(F)F)cc(Cl)c1=O [compound 46605]
IC50 (HIV NL4.3 strain; [6]): > 100 µM
CC50 [1, 7]: > 100 µM

CC(C)N(CCCN1CCCC1=O)C(=O)c1nn(-c2ccccc2)c2c1CCC2 [GB-08]
IC50 (HIV NL4.3 strain; [2]): 30 to 50 µM
CC50 [1, 3]: > 100 µM

COc1ccc(C(F)(F)F)cc1-c1noc(Cn2cc(C)cc(Cl)c2=O)n1 [compound 47198]
IC50 (HIV NL4.3 strain; [6]): > 50 µM
CC50 [1, 7]: > 50 µM

O=C(NCCCN1CCCC1=O)c1cnn(-c2ccccc2)c1 [compound 46935]
IC50 (HIV NL4.3 strain; [2]): > 100 µM
CC50 [1, 3]: > 100 µM

COc1ccccc1CCNC(=O)C(C)(c1ccccc1)c1ccccc1 [3-43]
IC50 (HIV NL4.3 strain; [4]): 20 to 100 µM
CC50 [1, 5]: 25 to 50 µM

CCc1nccn1CCCNC(=O)C(C)(c1ccccc1)c1ccccc1 [3-56]
IC50 (HIV NL4.3 strain; [4]): 10 to 20 µM
CC50 [1, 5]: > 100 µM

COc1ccc(C(F)(F)F)cc1NC(=O)Cn1cc(F)cc(Cl)c1=O [compound 47006]
IC50 (HIV NL4.3 strain; [6]): > 50 µM
CC50 [1, 7]: > 50 µM

O=C(NCCCn1ccnc1)C(CCO)(c1ccccc1)c1ccccc1 [3-74]
IC50 (HIV NL4.3 strain; [4]): 1 to 20 µM
CC50 [1, 5]: > 100 µM

NC(C(=O)NCCCn1ccnc1)(c1ccccc1)c1ccccc1 [3-42]
IC50 (HIV NL4.3 strain; [4]): 10 to 30 µM
CC50 [1, 5]: > 100 µM

COc1ccccc1CNC(=O)Cn1cc(C(F)(F)F)cc(Cl)c1=O [compound 46688]
IC50 (HIV NL4.3 strain; [6]): > 100 µM
CC50 [1, 7]: > 100 µM

Cc1ccc(CC(=O)NCCCn2cnc3ccccc32)cc1 [Z102452176]
IC50 (HIV NL4.3 strain; [4]): 10 to 30 µM
CC50 [1, 5]: > 100 µM

O=C(NCCCn1ccnc1)c1cc2cc(Cl)ccc2[nH]1 [3-41]
IC50 (HIV NL4.3 strain; [4]): > 100 µM
CC50 [1, 5]: > 100 µM

COc1ccc(C(F)(F)F)cc1NC(=O)CCn1cc(C(F)(F)F)cc(Cl)c1=O [compound 47020]
IC50 (HIV NL4.3 strain; [6]): > 25 µM
CC50 [1, 7]: > 25 µM

CCC(C(=O)NCCCn1ccnc1C)(c1ccccc1)c1ccccc1 [3-69]
IC50 (HIV NL4.3 strain; [4]): 1 to 10 µM
CC50 [1, 5]: > 100 µM

CCCN(CCCN1CCCC1=O)C(=O)c1cc(C)n(-c2ccccc2)n1 [GB-17]
IC50 (HIV NL4.3 strain; [2]): > 100 µM
CC50 [1, 3]: > 100 µM

COc1ccc(C(F)(F)F)cc1NC(=O)Cn1cc(C(F)(F)F)ccc1=O [compound 46917]
IC50 (HIV NL4.3 strain; [6]): 1 to 30 µM
CC50 [1, 7]: > 100 µM

N#Cc1ccc(NC(=O)c2cn(-c3ccccc3)c3ccccc23)cc1 [compound 41905]
IC50 (HIV NL4.3 strain; [2]): 1 to 10 µM
CC50 [1, 3]: 1 to 10 µM

CC(C(=O)NCC1CCCNC1)(c1ccccc1)c1ccccc1 (stereo not shown) [3-59]
IC50 (HIV NL4.3 strain; [4]): 1 to 30 µM
CC50 [1, 5]: > 100 µM

CC(C(=O)NCCCc1cccnc1)(c1ccccc1)c1ccccc1 [3-76]
IC50 (HIV NL4.3 strain; [4]): 1 to 30 µM
CC50 [1, 5]: 10 to 30 µM

O=C(Cn1cc(C(F)(F)F)cc(Cl)c1=O)Nc1cc(C(F)(F)F)ccc1OCCN1CCOCC1 [compound 51]
IC50 (HIV NL4.3 strain; [6]): 1 to 10 µM
CC50 [1, 7]: 50 to 100 µM

O=C(NCCCN1CCCC1=O)c1nn(-c2ccccc2)c2c1CCC1(C2)OCCO1 [GB-10]
IC50 (HIV NL4.3 strain; [2]): > 100 µM
CC50 [1, 3]: > 100 µM

N#Cc1ccc(CNC(=O)c2cn(-c3ccccc3)c3ccccc23)cc1 [compound 41969]
IC50 (HIV NL4.3 strain; [2]): 12.4 µM
CC50 [1, 3]: > 100 µM

O=C(O)c1ccc(C2(NC(=O)c3cn(-c4ccc(F)cc4)c4ccccc34)CC2)cc1 [compound 42097]
IC50 (HIV NL4.3 strain; [2]): > 100 µM
CC50 [1, 3]: > 100 µM

O=C(NCCCN1CCCC1=O)c1n[nH]c2c1CCC2 [compound 46727]
IC50 (HIV NL4.3 strain; [2]): > 100 µM
CC50 [1, 3]: > 100 µM

O=C(NCCCn1ccnc1)C(c1ccccc1)(c1ccccc1)c1ccccc1 [3-58]
IC50 (HIV NL4.3 strain; [4]): 1 to 20 µM
CC50 [1, 5]: > 100 µM

CCCC(=O)NC(C(=O)NCCCn1ccnc1)(c1ccccc1)c1ccccc1 [3-60]
IC50 (HIV NL4.3 strain; [4]): > 100 µM
CC50 [1, 5]: > 100 µM

CC(=O)c1cccc(CNC(=O)c2cn(-c3ccccc3)c3ccccc23)c1 [compound 41967]
IC50 (HIV NL4.3 strain; [2]): > 100 µM
CC50 [1, 3]: > 100 µM

O=C(NCCCN1CCCC1=O)c1nnc(-c2ccccc2)c2ccccc12 [compound 46934]
IC50 (HIV NL4.3 strain; [2]): > 100 µM
CC50 [1, 3]: > 100 µM

O=C(NCCCn1ccnc1)C1c2ccccc2-c2ccccc21 [3-35]
IC50 (HIV NL4.3 strain; [4]): 50 to 100 µM
CC50 [1, 5]: > 100 µM

O=C(NCc1ccc(Cl)cn1)c1cn(-c2ccc(F)cc2)c2ccccc12 [compound 41980]
IC50 (HIV NL4.3 strain; [2]): > 100 µM
CC50 [1, 3]: 35.6 µM

O=C(NCCCn1ccnc1)c1cc2cccnc2[nH]1 [3-37]
IC50 (HIV NL4.3 strain; [4]): > 100 µM
CC50 [1, 5]: > 100 µM

CC(C)c1nn(-c2ccccc2)cc1C(=O)NCCCN1CCCC1=O [compound 47092]
IC50 (HIV NL4.3 strain; [2]): > 100 µM
CC50 [1, 3]: > 100 µM

CC(C)(C)c1cn(-c2ccccc2)nc1C(=O)NCCCN1CCCC1=O [compound 47091]
IC50 (HIV NL4.3 strain; [2]): > 100 µM
CC50 [1, 3]: 50 to 100 µM

O=C(NCCCN1CCCC1=O)c1cn(-c2ccccc2)c2ccccc12 [compound 46878]
IC50 (HIV NL4.3 strain; [2]): 50 to 100 µM
CC50 [1, 3]: > 100 µM

COc1ccc(C(F)(F)F)cc1-c1noc(Cn2cc(C(F)(F)F)cc(Cl)c2=O)n1 [compound 47111]
IC50 (HIV NL4.3 strain; [6]): > 100 µM
CC50 [1, 7]: > 100 µM

O=C(NCCCN1CCCC1=O)c1nn(-c2ccccc2)cc1C(F)(F)F [compound 46979]
IC50 (HIV NL4.3 strain; [2]): 50 to 100 µM
CC50 [1, 3]: > 100 µM

O=C(Nc1ccccc1)c1c(NCCCN2CCCC2=O)c2ccccc2[nH]c1=O [compound 46827]
IC50 (HIV NL4.3 strain; [2]): > 100 µM
CC50 [1, 3]: > 100 µM

CCc1cc(C(=O)NCCCN2CCCC2=O)nn1-c1ccccc1 [GB-13]
IC50 (HIV NL4.3 strain; [2]): 10 to 20 µM
CC50 [1, 3]: > 100 µM

CCCC(C(=O)NCCCn1ccnc1)(c1ccccc1)c1ccccc1 [3-57]
IC50 (HIV NL4.3 strain; [4]): 1 to 10 µM
CC50 [1, 5]: > 100 µM

CC(C(=O)Nc1cc(OCc2ccccc2)ccn1)(c1ccccc1)c1ccccc1 [3-44]
IC50 (HIV NL4.3 strain; [4]): 1 to 30 µM
CC50 [1, 5]: > 100 µM

O=C1CCc2c(C(=O)NCCCN3CCCC3=O)nn(-c3ccccc3)c2C1 [GB-11]
IC50 (HIV NL4.3 strain; [2]): 10 to 20 µM
CC50 [1, 3]: > 100 µM

O=C(NCCCN1CCCC1=O)c1nn(CC2CCC2)c2c1CCC2 [compound 46933]
IC50 (HIV NL4.3 strain; [2]): > 100 µM
CC50 [1, 3]: > 100 µM

CCOc1ccccc1NC(=O)Cn1c(C)cc(COC)c(C#N)c1=O [compound 46602]
IC50 (HIV NL4.3 strain; [6]): > 100 µM
CC50 [1, 7]: > 100 µM
